From paper PMC3041267 (Angewandte Chemie (International ed. in English), 2009) come the findings set out here.

This assay relates to HDAC activity in HeLa cell nuclear extracts. It is filed as biochemical. Particulars: read-out: IC50, inhibition of HDAC activity in HeLa cell nuclear extracts; preliminary assessment, fluorescence assay.

As for `CCC(=O)CCCCC[C@@H]1NC(=O)[C@H]2CCCCN2C(=O)[C@H]([C@@H](C)CC)NC(=O)[C@H](Cc2cn(OC)c3ccccc23)NC1=O` [apicidin], the IC50 (commonly the concentration needed to halve the response being measured) is at most 100 nM.
